Experiments:
Type in all cases: in vivo
[1] = tested on: early watergrass (Echinochloa oryzicola Vasing); test: Test Example 1: herbicidal effect by soil application to paddy field; details: paddy field soil application; active ingredient 1,000 g per 1 hectare; wettable powder added dropwise to water surface the day after sowing; examined on the 21st day after application
Method in brief: (§1)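 Under greenhouse conditions, seeds sown on puddled paddy soil in 100 cm2 pots under 3 cm of standing water received the test compound; injury was assessed with a standard scoring scheme three weeks (day 21) after treatment.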

[2] = tested on: heartshape false pickerelweed (Monochoria vaginalis (Burm.f.) C.Presl); test: as above; details: paddy field soil application; active ingredient 1,000 g per 1 hectare; wettable powder added dropwise to water surface the day after sowing; examined on the 21st day after application
Method in brief: as §1

[3] = tested on: Japanese bulrush (Scirpus juncoides Roxb.); test: as above; details: paddy field soil application; active ingredient 1,000 g per 1 hectare; wettable powder added dropwise to water surface the day after sowing; examined on the 21st day after application
Method in brief: as §1

[4] = tested on: velvetleaf (Abutilon theophrasti medicus); test: Test Example 3: herbicidal effect by application to upland field (foliage treatment); details: 14th day after application; for herbicidal effect (index), Velvetleaf: foliage treatment, plants grown two weeks, 1,000 g active ingredient per hectare; for herbicidal effect, Velvetleaf: foliage treatment, 1,000 g active ingredient per 1 hectare, greenhouse
Method in brief: (§2)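 Two weeks after sowing in field soil under greenhouse conditions, seedlings receive a top-down foliar spray of wettable powder diluted in water at an active-ingredient rate of 1,000 g per hectare. Effect is rated against a standard 14 days post-treatment.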

[5] = tested on: barnyardgrass (Echinochloa crus-galli (L.) P. Beauv. var. crus-galli); test: as above; details: 14th day after application; for herbicidal effect (index), Barnyardgrass: foliage treatment, plants grown two weeks, 1,000 g active ingredient per hectare; for herbicidal effect, Barnyardgrass: foliage treatment, 1,000 g active ingredient per 1 hectare, greenhouse
Method in brief: as §2

[6] = tested on: slender amaranth (Amaranthus viridis L.); test: as above; details: 14th day after application; for herbicidal effect (index), Slender Amaranth: foliage treatment, plants grown two weeks, 1,000 g active ingredient per hectare; for herbicidal effect, Slender Amaranth: foliage treatment, 1,000 g active ingredient per 1 hectare, greenhouse
Method in brief: as §2

[7] = tested on: green foxtail (Setaria viridis (L.) P. Beauv.); test: as above; details: 14th day after application; for herbicidal effect (index), Green Foxtail: foliage treatment, plants grown two weeks, 1,000 g active ingredient per hectare; for herbicidal effect, Green Foxtail: foliage treatment, 1,000 g active ingredient per 1 hectare, greenhouse
Method in brief: as §2

[8] = tested on: velvetleaf (Abutilon theophrasti medicus); test: Test Example 2: herbicidal effect by soil application to upland field; details: soil surface spray, upland field soil, 1,000 g active ingredient per hectare, 21st day after application
Method in brief: (§3)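 Soil-applied wettable powder, 1,000 g a.i./ha, sprayed after sowing onto covered field soil. Effect rated on a standard scale 21 days later in a greenhouse.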

[9] = tested on: barnyardgrass (Echinochloa crus-galli (L.) P. Beauv. var. crus-galli); test: as above; details: soil surface spray, upland field soil, 1,000 g active ingredient per hectare, 21st day after application
Method in brief: as §3

[10] = tested on: slender amaranth (Amaranthus viridis L.); test: as above; details: soil surface spray, upland field soil, 1,000 g active ingredient per hectare, 21st day after application
Method in brief: as §3

[11] = tested on: green foxtail (Setaria viridis (L.) P. Beauv.); test: as above; details: soil surface spray, upland field soil, 1,000 g active ingredient per hectare, 21st day after application
Method in brief: as §3

Structure (SMILES)	herbicidal effect, Echinochloa oryzicola Vasing [1]	herbicidal effect, Monochoria vaginalis (Burm. f.) C. Presl [2]	herbicidal effect, Scirpus juncoides Roxb. [3]	herbicidal effect (index), Velvetleaf [4]	herbicidal effect (index), Barnyardgrass [5]	herbicidal effect (index), Slender Amaranth [6]	herbicidal effect (index), Green Foxtail [7]	herbicidal effect (index), Velvetleaf [8]	herbicidal effect (index), Barnyardgrass [9]	herbicidal effect (index), Slender Amaranth [10]	herbicidal effect (index), Green Foxtail [11]	herbicidal effect, Velvetleaf [4]	herbicidal effect, Barnyardgrass [5]	herbicidal effect, Slender Amaranth [6]	herbicidal effect, Green Foxtail [7]
O=C1CCCC(O)=C1C(=O)c1ccc(C(F)(F)F)n(CSCC2CC2)c1=O [I-57]	5 (90% or more of herbicidal effect and crop phytotoxicity)	5 (90% or more of herbicidal effect and crop phytotoxicity)	5 (90% or more of herbicidal effect and crop phytotoxicity)	5 (90% or more of herbicidal effect and crop phytotoxicity)	5 (90% or more of herbicidal effect and crop phytotoxicity)	5 (90% or more of herbicidal effect and crop phytotoxicity)	5 (90% or more of herbicidal effect and crop phytotoxicity)	5 (90% or more of herbicidal effect and crop phytotoxicity)	5 (90% or more of herbicidal effect and crop phytotoxicity)	5 (90% or more of herbicidal effect and crop phytotoxicity)	5 (90% or more of herbicidal effect and crop phytotoxicity)				
CCc1ccc(C(=O)C2=C(O)CCCC2=O)c(=O)n1-c1ccccc1 [I-230]	5 (90% or more of herbicidal effect and crop phytotoxicity)	5 (90% or more of herbicidal effect and crop phytotoxicity)	5 (90% or more of herbicidal effect and crop phytotoxicity)					5 (90% or more of herbicidal effect and crop phytotoxicity)	4 (70 to less than 90% of herbicidal effect and crop phytotoxicity)	5 (90% or more of herbicidal effect and crop phytotoxicity)	5 (90% or more of herbicidal effect and crop phytotoxicity)	5 (90% or more of herbicidal effect and crop phytotoxicity)	5 (90% or more of herbicidal effect and crop phytotoxicity)	5 (90% or more of herbicidal effect and crop phytotoxicity)	4 (70 to less than 90% of herbicidal effect and crop phytotoxicity)
CC1CC(C)(C)C(O)=C(C(=O)c2ccc(C(F)(F)F)n(C)c2=O)C1=O (stereo not shown) [II-5]	5 (90% or more of herbicidal effect and crop phytotoxicity)	5 (90% or more of herbicidal effect and crop phytotoxicity)	5 (90% or more of herbicidal effect and crop phytotoxicity)					5 (90% or more of herbicidal effect and crop phytotoxicity)	5 (90% or more of herbicidal effect and crop phytotoxicity)	5 (90% or more of herbicidal effect and crop phytotoxicity)	5 (90% or more of herbicidal effect and crop phytotoxicity)	5 (90% or more of herbicidal effect and crop phytotoxicity)	4 (70 to less than 90% of herbicidal effect and crop phytotoxicity)	4 (70 to less than 90% of herbicidal effect and crop phytotoxicity)	3 (50 to less than 70% of herbicidal effect and crop phytotoxicity)
C=CCSCn1c(C(F)(F)F)ccc(C(=O)C2=C(O)CCCC2=O)c1=O [I-63]	5 (90% or more of herbicidal effect and crop phytotoxicity)	5 (90% or more of herbicidal effect and crop phytotoxicity)	5 (90% or more of herbicidal effect and crop phytotoxicity)	5 (90% or more of herbicidal effect and crop phytotoxicity)	5 (90% or more of herbicidal effect and crop phytotoxicity)	5 (90% or more of herbicidal effect and crop phytotoxicity)	5 (90% or more of herbicidal effect and crop phytotoxicity)	5 (90% or more of herbicidal effect and crop phytotoxicity)	5 (90% or more of herbicidal effect and crop phytotoxicity)	5 (90% or more of herbicidal effect and crop phytotoxicity)	4 (70 to less than 90% of herbicidal effect and crop phytotoxicity)				
COCCn1c(C(F)(F)F)ccc(C(=O)c2cnn(C)c2O)c1=O [IV-33]	5 (90% or more of herbicidal effect and crop phytotoxicity)	5 (90% or more of herbicidal effect and crop phytotoxicity)	5 (90% or more of herbicidal effect and crop phytotoxicity)					5 (90% or more of herbicidal effect and crop phytotoxicity)	5 (90% or more of herbicidal effect and crop phytotoxicity)	5 (90% or more of herbicidal effect and crop phytotoxicity)	5 (90% or more of herbicidal effect and crop phytotoxicity)	5 (90% or more of herbicidal effect and crop phytotoxicity)	5 (90% or more of herbicidal effect and crop phytotoxicity)	5 (90% or more of herbicidal effect and crop phytotoxicity)	5 (90% or more of herbicidal effect and crop phytotoxicity)
CC1(C)C(=O)C(C(=O)c2ccc(C(F)(F)F)n(-c3ccccc3)c2=O)=C(O)C(C)(C)C1=O [II-41]	5 (90% or more of herbicidal effect and crop phytotoxicity)	5 (90% or more of herbicidal effect and crop phytotoxicity)	4 (70 to less than 90% of herbicidal effect and crop phytotoxicity)					5 (90% or more of herbicidal effect and crop phytotoxicity)	4 (70 to less than 90% of herbicidal effect and crop phytotoxicity)	5 (90% or more of herbicidal effect and crop phytotoxicity)	5 (90% or more of herbicidal effect and crop phytotoxicity)	5 (90% or more of herbicidal effect and crop phytotoxicity)	5 (90% or more of herbicidal effect and crop phytotoxicity)	4 (70 to less than 90% of herbicidal effect and crop phytotoxicity)	5 (90% or more of herbicidal effect and crop phytotoxicity)
Cn1ncc(C(=O)c2ccc(C(F)(F)F)n(-c3ccc4c(c3)OCO4)c2=O)c1O [IV-97]	5 (90% or more of herbicidal effect and crop phytotoxicity)	5 (90% or more of herbicidal effect and crop phytotoxicity)	5 (90% or more of herbicidal effect and crop phytotoxicity)					5 (90% or more of herbicidal effect and crop phytotoxicity)	5 (90% or more of herbicidal effect and crop phytotoxicity)	5 (90% or more of herbicidal effect and crop phytotoxicity)	4 (70 to less than 90% of herbicidal effect and crop phytotoxicity)	5 (90% or more of herbicidal effect and crop phytotoxicity)	5 (90% or more of herbicidal effect and crop phytotoxicity)	5 (90% or more of herbicidal effect and crop phytotoxicity)	5 (90% or more of herbicidal effect and crop phytotoxicity)
O=C1CCCC(O)=C1C(=O)c1ccc(C(F)(F)F)n(-c2ccccn2)c1=O [I-150]	5 (90% or more of herbicidal effect and crop phytotoxicity)	5 (90% or more of herbicidal effect and crop phytotoxicity)	5 (90% or more of herbicidal effect and crop phytotoxicity)					5 (90% or more of herbicidal effect and crop phytotoxicity)	5 (90% or more of herbicidal effect and crop phytotoxicity)	5 (90% or more of herbicidal effect and crop phytotoxicity)	5 (90% or more of herbicidal effect and crop phytotoxicity)	5 (90% or more of herbicidal effect and crop phytotoxicity)	5 (90% or more of herbicidal effect and crop phytotoxicity)	5 (90% or more of herbicidal effect and crop phytotoxicity)	5 (90% or more of herbicidal effect and crop phytotoxicity)

— patent US8076487B2, “Pyridone derivative and herbicide” (Kumiai Chemical Industry Co., Ltd., priority 2006, dated 2011)
